From patent US20030212084A1, “Naphthrydine compounds and their azaisosteric analogues as antibacterials” (priority 1998, published 2003)
Values after ≈ are worked out from the molar mass of the structure shown.

Experiments:
Assay type in all cases: cell-based
some of these organisms = assay: MIC against various organisms (unspecified subset); settings: against some of these organisms (those of the table)
Experimental: (§1) The MIC (μg/ml) of compounds 1 and 2 against various organisms was determined.

E. faecalis I = assay: MIC against E. faecalis I; settings: Enterococcus faecalis
Experimental: as §1

S. aureus WCUH29 = assay: MIC against S. aureus WCUH29; settings: Staphylococcus aureus
Experimental: as §1

S. aureus Carter 37 = assay: MIC against S. aureus Carter 37; settings: Staphylococcus aureus, CARTER37
Experimental: as §1

S. pneumoniae R6 = assay: MIC against S. pneumoniae R6; settings: Streptococcus pneumoniae
Experimental: as §1

M. catarrhalis Ravasio = assay: MIC against M. catarrhalis Ravasio; settings: Moraxella catarrhalis
Experimental: as §1

S. aureus Oxford = assay: MIC against S. aureus Oxford; settings: Staphylococcus aureus
Experimental: as §1

C=C[C@H]1CN(CCCCCCC)CC[C@H]1CC(O)Cc1ccnc2ccc(OC)nc12 (mixture of isomers) [Example 5, [3R,4S]-1-Heptyl-3-ethenyl-4-[2-(R,S)-hydroxy-3-(6-methoxy-1,5-naphthyridin-4-yl)propyl]piperidine]
MIC (some of these organisms): ≤ 1 mg/L

C=C[C@H]1CN(CCCCCCC)CC[C@H]1CCN(C)c1ncnc2ccc(OC)cc12 [Example 1, [3R, 4S]-1-Heptyl-4-[N-methyl-N-(6-methoxy-quinazolin-4-yl)-2-aminoethyl]-3-ethenylpiperidine]
MIC (E. faecalis I): 4 mg/L (≈ 9.42 µM) | MIC (S. aureus WCUH29): 0.5 mg/L (≈ 1.18 µM) | MIC (S. aureus Carter 37): 0.5 mg/L (≈ 1.18 µM) | MIC (S. pneumoniae R6): 0.5 mg/L (≈ 1.18 µM) | MIC (M. catarrhalis Ravasio): 0.5 mg/L (≈ 1.18 µM) | MIC (S. aureus Oxford): 0.5 mg/L (≈ 1.18 µM)

C=C[C@H]1CN(CCCCCCC)CC[C@H]1CCOc1ncnc2ccc(OC)cc12 [Example 2, [3R, 4S]-1-Heptyl-4-[2-(6-methoxyquinazolin4-oxy)ethyl]-3-ethenylpiperidine]
MIC (E. faecalis I): 8 mg/L (≈ 19.4 µM) | MIC (S. aureus WCUH29): 4 mg/L (≈ 9.72 µM) | MIC (S. aureus Carter 37): 4 mg/L (≈ 9.72 µM) | MIC (S. pneumoniae R6): 8 mg/L (≈ 19.4 µM) | MIC (M. catarrhalis Ravasio): 4 mg/L (≈ 9.72 µM) | MIC (S. aureus Oxford): 4 mg/L (≈ 9.72 µM)

CCCCCCCN1CCC(C(=O)Nc2ccnc3ccc(OC)nc23)CC1 [Example 3, 1-Heptyl-4-(6-methoxy-1,5-naphthyridin-4-yl)aminocarbonyl Piperidine]
MIC (some of these organisms): ≤ 1 mg/L

CCCCCCCN1CC[C@@H](CC(=O)Nc2ccnc3ccc(OC)nc23)[C@@H](CC(N)=O)C1.O=C(O)C(=O)O [Example 6, [3R,4S]-1-Heptyl-4-N-(6-methoxy-1,5-naphthyridin-4-yl)-3,4-piperidinediacetamide Oxalate]
MIC (some of these organisms): ≤ 1 mg/L
